{"source": "patent US6495715B2", "about": "“Calcium channel blockers” (Warner-Lambert Company, priority 1997, dated 2002)", "key": {"N-type Ca2+ channel": {"molecular_target": "T1, N-type Ca2+ channel (Homo sapiens, UniProt Q00975)", "T1 construct": "host or cells: IMR-32 cells, differentiated with dibutyryl cAMP and bromodeoxyuridine", "T1 sequence (Q00975 whole entry)": "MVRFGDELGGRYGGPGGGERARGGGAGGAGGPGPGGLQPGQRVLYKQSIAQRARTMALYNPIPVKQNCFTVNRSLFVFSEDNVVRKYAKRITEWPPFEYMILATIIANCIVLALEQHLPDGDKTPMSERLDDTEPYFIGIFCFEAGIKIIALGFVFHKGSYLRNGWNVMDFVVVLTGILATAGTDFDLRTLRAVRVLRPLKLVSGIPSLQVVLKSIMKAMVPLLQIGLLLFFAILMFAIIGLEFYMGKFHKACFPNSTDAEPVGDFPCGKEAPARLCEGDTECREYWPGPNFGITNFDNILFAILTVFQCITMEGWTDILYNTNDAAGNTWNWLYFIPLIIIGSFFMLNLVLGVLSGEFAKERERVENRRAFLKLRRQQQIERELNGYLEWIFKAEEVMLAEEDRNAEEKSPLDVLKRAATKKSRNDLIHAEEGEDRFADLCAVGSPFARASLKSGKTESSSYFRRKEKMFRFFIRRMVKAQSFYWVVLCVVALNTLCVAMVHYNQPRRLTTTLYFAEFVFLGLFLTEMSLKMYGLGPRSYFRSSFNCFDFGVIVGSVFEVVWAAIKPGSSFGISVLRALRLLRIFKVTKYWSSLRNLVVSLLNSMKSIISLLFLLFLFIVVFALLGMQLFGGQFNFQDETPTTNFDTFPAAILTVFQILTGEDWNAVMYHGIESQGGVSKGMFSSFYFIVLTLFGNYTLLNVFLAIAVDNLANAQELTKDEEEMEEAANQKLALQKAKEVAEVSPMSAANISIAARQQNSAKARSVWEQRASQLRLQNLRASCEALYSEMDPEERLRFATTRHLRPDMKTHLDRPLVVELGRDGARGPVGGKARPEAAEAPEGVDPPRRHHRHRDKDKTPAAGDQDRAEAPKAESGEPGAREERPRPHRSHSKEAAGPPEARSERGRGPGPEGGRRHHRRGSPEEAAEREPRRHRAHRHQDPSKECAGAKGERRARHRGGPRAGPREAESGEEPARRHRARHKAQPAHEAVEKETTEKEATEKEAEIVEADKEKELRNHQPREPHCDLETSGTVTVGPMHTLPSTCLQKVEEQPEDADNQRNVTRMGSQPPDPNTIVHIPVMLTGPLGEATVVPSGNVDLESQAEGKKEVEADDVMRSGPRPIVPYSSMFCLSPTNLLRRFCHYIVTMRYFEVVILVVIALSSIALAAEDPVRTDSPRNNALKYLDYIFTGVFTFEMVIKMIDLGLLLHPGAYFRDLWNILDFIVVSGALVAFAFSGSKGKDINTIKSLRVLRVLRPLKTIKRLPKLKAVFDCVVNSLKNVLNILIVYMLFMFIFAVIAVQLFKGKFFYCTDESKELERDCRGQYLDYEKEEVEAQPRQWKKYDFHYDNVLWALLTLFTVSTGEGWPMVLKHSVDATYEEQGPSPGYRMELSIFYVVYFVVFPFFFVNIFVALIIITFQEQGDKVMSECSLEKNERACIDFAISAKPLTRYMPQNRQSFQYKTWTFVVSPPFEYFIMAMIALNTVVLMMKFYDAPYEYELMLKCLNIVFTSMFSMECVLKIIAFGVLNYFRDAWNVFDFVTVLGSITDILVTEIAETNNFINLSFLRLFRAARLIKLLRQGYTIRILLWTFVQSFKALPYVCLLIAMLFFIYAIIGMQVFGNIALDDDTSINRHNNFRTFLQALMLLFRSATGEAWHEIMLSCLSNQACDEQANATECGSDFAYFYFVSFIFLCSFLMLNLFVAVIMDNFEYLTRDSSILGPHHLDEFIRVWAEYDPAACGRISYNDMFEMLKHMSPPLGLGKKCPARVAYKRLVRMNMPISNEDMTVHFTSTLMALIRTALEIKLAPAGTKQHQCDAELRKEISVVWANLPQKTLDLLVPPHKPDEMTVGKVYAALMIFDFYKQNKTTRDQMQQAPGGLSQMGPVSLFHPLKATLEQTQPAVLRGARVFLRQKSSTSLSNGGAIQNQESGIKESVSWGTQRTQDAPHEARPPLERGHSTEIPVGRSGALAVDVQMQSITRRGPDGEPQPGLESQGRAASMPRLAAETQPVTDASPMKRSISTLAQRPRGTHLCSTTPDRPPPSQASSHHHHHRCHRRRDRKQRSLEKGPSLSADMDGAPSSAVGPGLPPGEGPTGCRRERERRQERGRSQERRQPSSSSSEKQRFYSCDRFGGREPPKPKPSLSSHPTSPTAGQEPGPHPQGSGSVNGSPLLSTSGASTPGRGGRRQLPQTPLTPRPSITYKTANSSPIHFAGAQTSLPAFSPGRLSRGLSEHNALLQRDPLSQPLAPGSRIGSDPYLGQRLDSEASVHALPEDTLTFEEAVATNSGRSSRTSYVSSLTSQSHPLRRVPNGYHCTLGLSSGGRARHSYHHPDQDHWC", "T1 sequence (P54289 25-956 partner limits assumed)": "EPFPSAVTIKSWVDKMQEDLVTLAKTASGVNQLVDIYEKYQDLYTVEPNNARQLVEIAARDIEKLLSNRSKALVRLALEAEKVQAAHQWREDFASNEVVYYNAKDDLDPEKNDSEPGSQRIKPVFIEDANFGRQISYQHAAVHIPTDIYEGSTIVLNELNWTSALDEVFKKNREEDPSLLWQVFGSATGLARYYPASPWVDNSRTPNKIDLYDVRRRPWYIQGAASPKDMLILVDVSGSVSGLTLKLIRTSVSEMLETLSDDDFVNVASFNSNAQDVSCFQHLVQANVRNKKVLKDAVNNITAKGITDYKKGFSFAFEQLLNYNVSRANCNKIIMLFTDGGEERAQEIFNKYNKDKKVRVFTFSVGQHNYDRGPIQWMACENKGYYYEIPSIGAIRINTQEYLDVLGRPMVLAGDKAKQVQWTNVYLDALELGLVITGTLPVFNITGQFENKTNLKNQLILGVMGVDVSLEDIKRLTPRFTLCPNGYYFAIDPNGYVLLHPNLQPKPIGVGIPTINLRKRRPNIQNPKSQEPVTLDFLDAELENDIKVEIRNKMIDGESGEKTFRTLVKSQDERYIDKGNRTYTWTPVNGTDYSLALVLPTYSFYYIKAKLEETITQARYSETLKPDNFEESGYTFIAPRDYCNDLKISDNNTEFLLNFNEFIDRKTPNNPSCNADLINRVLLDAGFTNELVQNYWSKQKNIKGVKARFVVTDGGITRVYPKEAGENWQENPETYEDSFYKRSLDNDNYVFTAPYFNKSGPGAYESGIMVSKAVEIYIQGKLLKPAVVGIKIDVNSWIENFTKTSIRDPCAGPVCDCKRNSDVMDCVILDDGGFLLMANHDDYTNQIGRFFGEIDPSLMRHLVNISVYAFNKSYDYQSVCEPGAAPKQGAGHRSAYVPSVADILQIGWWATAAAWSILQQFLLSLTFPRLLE", "T1 sequence (P54289 957-1103 partner limits assumed)": "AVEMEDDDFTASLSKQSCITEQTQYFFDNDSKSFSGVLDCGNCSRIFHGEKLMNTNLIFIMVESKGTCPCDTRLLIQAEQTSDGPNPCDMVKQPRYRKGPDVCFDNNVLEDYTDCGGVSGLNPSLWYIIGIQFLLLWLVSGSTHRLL", "T1 sequence (Q02641 whole entry partner)": "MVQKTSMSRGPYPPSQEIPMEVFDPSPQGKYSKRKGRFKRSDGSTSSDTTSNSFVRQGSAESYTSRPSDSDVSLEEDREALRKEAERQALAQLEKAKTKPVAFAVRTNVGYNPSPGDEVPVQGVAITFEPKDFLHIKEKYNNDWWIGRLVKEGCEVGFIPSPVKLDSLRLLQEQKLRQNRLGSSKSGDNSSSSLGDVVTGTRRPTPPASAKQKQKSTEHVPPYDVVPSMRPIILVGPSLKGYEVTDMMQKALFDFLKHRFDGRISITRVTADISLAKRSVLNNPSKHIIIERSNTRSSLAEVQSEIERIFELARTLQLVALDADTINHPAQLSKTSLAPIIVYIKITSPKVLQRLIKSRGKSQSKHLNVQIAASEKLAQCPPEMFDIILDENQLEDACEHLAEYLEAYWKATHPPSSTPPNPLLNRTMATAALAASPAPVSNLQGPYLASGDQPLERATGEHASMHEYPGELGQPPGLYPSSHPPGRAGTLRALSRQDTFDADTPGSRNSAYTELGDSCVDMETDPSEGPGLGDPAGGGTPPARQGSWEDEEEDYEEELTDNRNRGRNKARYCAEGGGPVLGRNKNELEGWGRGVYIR", "test": "Measurement of N-type Ca2+ channel blocking potencies in IMR-32 cells using the fluorescent Ca2+ indicator Indo-1", "type": "cell-based", "settings": "for IC50: K+-stimulated Ca2+ flux, 5 μM nitrendipine to block L-type channels; for inhibition at 1 µM: read-out: IMR 32 % of Blockade @ 1 μM; for inhibition at 10 µM: read-out: IMR 32 % of Blockade @ 10 μM", "method": "Measurement of N-type Ca^2+ Channel Blocking Potencies of Compounds in IMR-32 Cells Using the Fluorescent Ca^2+Indicator Indo-1\nIMR-32 cells are a human tumoral cell line of neural origin. […] Calcium flux into these cells may be induced by stimulation with elevated potassium concentrations. The L-channel component of calcium flux may be blocked by adding 5 μM nitrendipine. The remaining component of calcium entry into the IMR-32 cells is due to calcium flux through N-type calcium channels. Intracellular calcium concentrations are measured using the fluorescent calcium indicator Indo-1. The effect of drug concentration on calcium uptake is studied.\nThe IMR-32 cell line was obtained from the American Type Culture Collection (Rockville, Md.). Cells were grown in Eagle's Minimum Essential Medium with Earle's salts supplemented with 10% fetal bovine serum, 2 mM L-Gln and antibiotic/antimycotic mixture (Gibco). […] After 7 to 13 days of differentiation, cells were detached using 0.5 mM EDTA and loaded with 5 μM Indo-1 acetoxymethyl ester (Molecular Probes, Eugene, Oreg.) at 30° C. for 45 minutes. Loaded cells were washed twice, resuspended (˜10^7 cells/mL) in assay buffer (10 mM HEPES/Tris pH 7.4 in Hank's Balanced Salt Solution without bicarbonate or phenol red containing 0.5% bovine serum albumin) and kept on ice until use. Fluorescence measurements were carried out in a Photon Technology International (PTI, South Brunswick, N.J.) Model RF-F3004 spectrofluorometer with dual emission monochromators using excitation at […] and emission at 400 and 490 nm. The instrument was equipped with a thermostated cuvette holder with stirring capabilities as well as with a computer-controlled pump which allowed for reagent addition during measurement. Instrument control and data collection was done by PTI's OSCAR software running on an IBM compatible computer. Different concentrations of the test compounds (60 μL in dimethyl sulfoxide) were added to 5.94 mL of assay buffer containing approximately 3×10^6 loaded cells, and 5 μM Nitrendipine (in […] EtOH) to block L-type Ca^2+ channels. Samples were incubated for 10 minutes at 30° C. and then aliquoted into three 10×10 mm disposable acrylic cuvettes. Emission signals at 400 and 490 nm were acquired from each cuvette at 30° C. for 50 seconds. At 20 seconds after the start of reading, cells were depolarized by the addition of 160 μL of stimulation solution (1 M KCl, 68 mM CaCl2) to the cuvette via the computer-controlled pump. Ratio of dual emission signals (400 nm/490 nm), which is proportional to intracellular Ca^2+ concentration, was plotted against time, and the difference between maximal response after stimulation and basal value (before stimulation) was determined. Values obtained in this way were plotted as a function of drug concentration. IC50 values of test compounds were calculated by fitting a four-parameter logistic function to the data using the least squares method."}, "DBA/2 mice": {"system": "DBA/2 mice", "test": "Audiogenic seizure (anticonvulsant) test in DBA/2 mice", "type": "in vivo", "settings": "Mus musculus, intravenous, sound-induced tonic seizures, tested 15 or 45 minutes after injection, read-out: DBA/2 mice % Protection", "method": "In vivo Biological Protocol:\nA compound of the present invention was dissolved in water using 10% (weight/volume) Emulphor (GAF Corp., Wayne, N.J.) surfactant. Substances were administered by intravenous injection into the retro-orbital venous sinus. All testing was performed 15 minutes or 45 minutes after drug injection. All the male mice, 3-4 weeks old were obtained from Jackson Laboratories Bar Harbour, Me. Immediately before anticonvulsant testing, mice were placed upon a wire mesh, 4 inches square suspended from a steel rod. The square was slowly inverted through 180 degrees and mice observed for 30 seconds. Any mouse falling from the wire mesh was scored as ataxia.\nMice were placed into an enclosed acrylic plastic chamber (21 cm height, approximately 30 cm diameter) with a high-frequency speaker (4 cm diameter) in the center of the top lid. An audio signal generator (Protek model B-810) was used to produce a continuous sinusoidal tone that was swept linearly in frequency between 8 kHz and 16 kHz once each 10 msec. The average sound pressure level (SPL) during stimulation was approximately 100 dB at the floor of the chamber. Mice were placed within the chamber and allowed to acclimatize for 1 minute. DBA/2 mice in the vehicle-treated group responded to the sound stimulus (applied until tonic extension occurred, or for a maximum of 60 sec) with a characteristic seizure sequence consisting of wild running followed by clonic seizures, and later by tonic extension, and finally by respiratory arrest and death in 80% or more of the mice. In vehicle-treated mice, the entire sequence of seizures to respiratory arrest lasts approximately 15-20 seconds.\nThe incidence of all the seizure phases in the drug-treated and vehicle-treated mice was recorded, and the occurrence of tonic seizures were used for calculating anticonvulsant ED50 values by probit analysis. Mice were used only once for testing at each time and dose point."}, "[1]": {"settings": "1 μM compound, 5 μM nitrendipine"}, "[2]": {"settings": "10 μM compound, 5 μM nitrendipine"}}}
{"smiles": "CC(C)=CCN(c1ccc(OCc2ccccc2)cc1)C1CCN(C(=O)[C@H](CC(C)C)N(C)C)CC1", "note": "[Example 23, (S)-1-{4-[(4-Benzyloxy-phenyl)-(3-methyl-but-2-enyl)-amino]-piperidin-1-yl}-2-dimethylamino-4-methyl-pentan-1-one]", "values": [{"measurement": "IC50", "setting": "N-type Ca2+ channel", "result": 650, "unit": "nM"}, {"measurement": "responders at 10 mg/kg", "setting": "DBA/2 mice", "result": 40, "unit": "%"}]}
{"smiles": "CC(C)CCN(c1ccc(NCCC(C)(C)C)cc1)C1CCN(C(=O)[C@H](CC(C)C)NC(=O)N2CCCCCC2)CC1", "note": "[Example 36, (S)-Azepane-1-carboxylic acid (1-{4-[[4-(3,3-dimethyl-butylamino)-phenyl]-(3-methyl-butyl)-amino]-piperidine-1-carbonyl}-3-methyl-butyl)-amide]", "values": [{"measurement": "IC50", "setting": "N-type Ca2+ channel", "result": 180, "unit": "nM"}, {"measurement": "responders at 30 mg/kg", "setting": "DBA/2 mice; 30 mg/kg", "result": 80, "unit": "%"}]}
{"smiles": "CC(C)=CCN(c1ccc(OCc2ccccc2)cc1)C1CCN(C(=O)[C@@H](N)CC(C)C)CC1", "note": "[Example 20, (S)-2-Amino-1-{4-[(4-benzyloxy-phenyl)-(3-methyl-but-2-enyl)-amino]-piperidin-1-yl}-4-methyl-pentan-1-one]", "values": [{"measurement": "IC50", "setting": "N-type Ca2+ channel", "result": 2400, "unit": "nM"}, {"measurement": "responders at 10 mg/kg", "setting": "DBA/2 mice", "result": 100, "unit": "%"}]}
{"smiles": "CCC(C)[C@H](N)C(=O)N1CCC(N(CC=C(C)C)c2ccc(OCc3ccccc3)cc2)CC1", "note": "(stereo partly drawn) [Example 22, (S)-2-Amino-1-{4-[(4-benzyloxy-phenyl)-(3-methyl-but-2-enyl)-amino]-piperidin-1-yl}-3-methyl-pentan-1-one]", "values": [{"measurement": "inhibition at 1 µM", "setting": "N-type Ca2+ channel; [1]", "result": 39, "unit": "%"}, {"measurement": "inhibition at 10 µM", "setting": "N-type Ca2+ channel; [2]", "result": 90, "unit": "%"}, {"measurement": "responders at 10 mg/kg", "setting": "DBA/2 mice", "result": 100, "unit": "%"}]}
{"smiles": "CC(C)=CCN(CC(C)(C)NC(=O)[C@H](CC(C)C)N(C)C1C=CCCC1)c1ccc(OCc2ccccc2)cc1", "note": "(stereo partly drawn) [Example 12, (S)-2-(Cyclohex-2-enyl-methyl-amino)-4-methyl-pentanoic acid {2-[(4-benzyloxy-phenyl)-(3-methyl-but-2-enyl)-amino]-1,1-dimethyl-ethyl}-amide]", "values": [{"measurement": "IC50", "setting": "N-type Ca2+ channel", "result": 630, "unit": "nM"}]}
{"smiles": "CC(C)CCN(c1ccc(NC(=O)OCc2ccccc2)cc1)C1CCN(C(=O)[C@H](CC(C)C)NC(=O)N2CCCCCC2)CC1", "note": "[Example 34, (S)-{4-[(1-{2-[(Azepane-1-carbonyl)-amino]-4-methyl-pentanoyl}-piperidin-4-yl)-(3-methyl-butyl)-amino]-phenyl}-carbamic acid benzyl ester]", "values": [{"measurement": "inhibition at 1 µM", "setting": "N-type Ca2+ channel; [1]", "result": 83, "unit": "%"}]}
{"smiles": "CC(C)CCN(C)[C@@H](CC(C)C)C(=O)NC(C)(C)CN(c1ccc(OCc2ccccc2)cc1)C1C=CCCC1", "note": "(stereo partly drawn) [Example 17, (S)-4-Methyl-2-[methyl-(3-methyl-butyl)-amino]-pentanoic acid {2-[(4-benzyloxy-phenyl)-cyclohex-2-enyl-amino]-1,1-dimethyl-ethyl}-amide]", "values": [{"measurement": "inhibition at 1 µM", "setting": "N-type Ca2+ channel; [1]", "result": 57, "unit": "%"}, {"measurement": "inhibition at 10 µM", "setting": "N-type Ca2+ channel; [2]", "result": 80, "unit": "%"}]}
{"smiles": "CC(C)=CCN(CC(C)(C)NC(=O)[C@H](CC(C)C)N(C)Cc1ccc(C(C)(C)C)cc1)c1ccc(OCc2ccccc2)cc1", "note": "[Example 13, (S)-2-[(4-tert-Butyl-benzyl)-methyl-amino]-4-methyl-pentanoic acid {2-[(4-benzyloxy-phenyl)-(3-methyl-but-2-enyl)-amino]-1.1-dimethyl-ethyl}-amide]", "values": [{"measurement": "IC50", "setting": "N-type Ca2+ channel", "result": 5600, "unit": "nM"}]}
{"smiles": "CC(C)=CCN(C[C@H](C)NC(=O)[C@H](CC(C)C)N(CC=C(C)C)CC=C(C)C)c1ccc(OCc2ccccc2)cc1", "note": "(relative stereo) [Example 19, [S-(R*,R*)]-2-{Bis]-(3-methyl-but-2-enylamino)-4-Methyl-pentanoic acid {2-[(4-benzyloxy-phenyl)-(3-methyl-but-2-enyl)-amino]-1-methyl-ethyl 1-amide]", "values": [{"measurement": "IMR 32 % of Blockade @ 1 μM", "setting": "N-type Ca2+ channel; [1]", "result": 74, "unit": "%"}, {"measurement": "IMR 32 % of Blockade @ 10 μM", "setting": "N-type Ca2+ channel; [2]", "result": 70, "unit": "%"}]}
{"smiles": "CC(C)=CCN(c1ccc(OCc2ccccc2)cc1)C1CCN(C(=O)[C@H](CC(C)C)NC(C)C)CC1", "note": "[Example 24, (S)-1-{4-[(4-Benzyloxy-phenyl)-(3-methyl-but-2-enyl)-amino]-piperidin-1-yl}-2-isopropylamino-4-methyl-pentan-1-one]", "values": [{"measurement": "IC50", "setting": "N-type Ca2+ channel", "result": 750, "unit": "nM"}]}
